pIC50: −log10 of the molar value. Read-outs that look alike come from different tables or passages of the source.
What was measured:
[1] = tested on: SKBr3 (estrogen receptor negative, Her2 over-expressing breast cancer cells); conditions: background, Marcu, et al., 2000; read-out: Hsp90 C-terminal inhibitor efficiency in SKBr3 cells; cited from earlier work
[2] = tested on: MCF-7 (estrogen receptor positive breast cancer cells); assay: Anti-proliferation assay (MTS/PMS, 72 h), MCF-7; assay type: cell-based; conditions: Homo sapiens, MCF7
MDAMB231 = assay: Anti-proliferation assay, MDAMB231; assay type: cell-based; conditions: Homo sapiens, MDA-MB-231, Tri-Neg
Outline: (§1)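 Growth inhibition is measured as viable cell number by MTS/PMS after 72 h of compound treatment, relative to 1% DMSO vehicle. IC50 values come from triplicate experiments.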

HMLE = assay: Anti-proliferation assay, HMLE (normal); assay type: cell-based; conditions: HMLE
Outline: as §1

JMAR = assay: Anti-proliferation assay, JMAR; assay type: cell-based; conditions: JMAR, HSNCC
Outline: as §1

[3] = tested on: SKBr3 (estrogen receptor negative, Her2 over-expressing breast cancer cells); assay: Anti-proliferation assay (MTS/PMS, 72 h), SKBr3; assay type: cell-based; conditions: Homo sapiens, SK-BR-3
PC-3 = assay: Anti-proliferation assay, PC-3; assay type: cell-based; conditions: Homo sapiens, PC-3, Prostate Cancer
Outline: as §1

DRO81-1 = assay: Anti-proliferation assay, DRO81-1; assay type: cell-based; conditions: Thyroid
Outline: as §1

HCT-116 = assay: Anti-proliferation assay, HCT-116; assay type: cell-based; conditions: Homo sapiens, HCT-116
Outline: as §1

[4] = tested on: SKBr3 and MCF-7 cell lines; assay: Anti-proliferative activity against both breast cancer cell lines (results in words); assay type: cell-based; conditions: text b189, two breast cancer cell lines
Method: (§2) Cells were maintained in a 1:1 mixture of Advanced DMEM/F12 (Gibco) supplemented with non-essential amino acids, L-glutamine (2 mM), streptomycin (500 μg/mL), penicillin (100 units/mL), and 10% FBS. Cells were grown to confluence in a humidified atmosphere (37° C., 5% CO2), seeded (2000/well, 100 μL) in 96-well plates, and allowed to attach overnight. Compound at varying concentrations in DMSO (1% DMSO final concentration) was added, and cells were returned to the incubator for 72 h. At 72 h, the number of viable cells was determined using an MTS/PMS cell proliferation kit (Promega) per the manufacturer's instructions. Cells incubated in 1% DMSO were used at 100% proliferation, and values were adjusted accordingly. IC50 values were calculated from separate experiments performed in triplicate using GraphPad Prism.
The anti-proliferative activity of these compounds is evaluated against two breast cancer cell lines, SKBr3 (estrogen receptor negative, Her2 over-expressing breast cancer cells) and MCF-7 (estrogen receptor positive breast cancer cells).

BCPAP = assay: Anti-proliferation assay, BCPAP; assay type: cell-based; conditions: Homo sapiens, BCPAP, Thyroid
Method: as §2

A-549 = assay: Anti-proliferation assay, A-549; assay type: cell-based; conditions: Homo sapiens, A549
Outline: as §1

MDA1986 = assay: Anti-proliferation assay, MDA1986; assay type: cell-based; conditions: MDA1986, HSNCC
Outline: as §1

MRC5 = assay: Anti-proliferation assay, MRC5 (normal); assay type: cell-based; conditions: Homo sapiens
Outline: as §1

[5] = Table 7, prenylated phenyl ureas
[6] = Table 6, substituted phenyl ureas, Breast Cancer, read-out: IC50 MCF-3
[7] = Table 6, substituted phenyl ureas
[8] = Table 6, substituted phenyl ureas, Breast Cancer, read-out: IC50 SKBr3
[9] = MRC5, Table 6, substituted phenyl ureas

Row | Compound | pIC50 [2, 6] | pIC50 (MDAMB231; [7]) | pIC50 [3, 8] | pIC50 (PC-3; [7]) | pIC50 (HCT-116; [7]) | pIC50 (A-549; [7]) | pIC50 (HMLE; [7]) | pIC50 (JMAR; [7]) | pIC50 (DRO81-1; [7]) | pIC50 (BCPAP; [7]) | pIC50 (MDA1986; [7]) | pIC50 (MRC5; [9]) | further results
1 | CO[C@@H]1[C@@H](OC(N)=O)[C@@H](O)[C@H](Oc2ccc3c(O)c(NC(=O)c4ccc(O)c(CC=C(C)C)c4)c(=O)oc3c2C)OC1(C)C [Novobiocin] |  |  |  |  |  |  |  |  |  |  |  |  | pIC50 [1]: ~3.15
2 | CC(C)=CCc1cc(NC(=O)Nc2cc3ccc(OC4CCN(C)CC4)c(C)c3oc2=O)ccc1O [OH, 1-(4-hydroxy-3-(3-methylbut-2-en-1-yl)phenyl)-3-(8-methyl-7-((1-methylpiperidin-4-yl)oxy)-2-oxo-2H-chromen-3-yl)urea] |  |  |  |  |  |  |  |  |  |  |  |  | pIC50 ([2]; Table 7, prenylated phenyl ureas, Breast Cancer, read-out: IC50 MCF-3): 6.43; pIC50 ([2]; amide versus urea linkage, read-out: IC50 for MCF-3): 6.43; pIC50 (MDAMB231; [5]): 6.18; pIC50 (HMLE; [5]): 5.32; pIC50 (JMAR; [5]): 6.04; pIC50 ([3]; Table 7, prenylated phenyl ureas, Breast Cancer, read-out: IC50 SKBr3): 6.41; pIC50 ([3]; amide versus urea linkage, read-out: IC50 for SKBr3): 6.41; pIC50 (PC-3; [5]): 6.54; pIC50 (DRO81-1; [5]): 5.96; pIC50 (HCT-116; [5]): 6.41; increase in inhibition, urea versus amide linkage [4]: 2-3 fold; pIC50 (BCPAP; [5]): 6.00; pIC50 (A-549; [5]): 6.60; pIC50 (MDA1986; [5]): 5.87; pIC50 (MRC5; MRC5, Table 7, prenylated phenyl ureas): 5.40
3 | COc1ccc(NC(=O)Nc2cc3ccc(OC4CCN(C)CC4)c(C)c3oc2=O)cc1-c1cccc(OC(C)=O)c1 [OMe, OAc, 2′-methoxy-5′-(3-(8-methyl-7-((1-methylpiperidin-4-yl)oxy)-2-oxo-2H-chromen-3-yl)ureido)-[1,1′-biphenyl]-3-yl acetate] |  |  |  |  |  |  |  |  |  |  |  |  | pIC50 ([2]; Table 8, biphenyl ureas, Breast Cancer, read-out: IC50 MCF-3): 6.57; pIC50 (MDAMB231; Table 8, biphenyl ureas): 6.41; pIC50 (HMLE; Table 8, biphenyl ureas): 6.00; pIC50 (JMAR; Table 8, biphenyl ureas): 5.66; pIC50 ([3]; Table 8, biphenyl ureas, Breast Cancer, read-out: IC50 SKBr3): 6.59; pIC50 (PC-3; Table 8, biphenyl ureas): 5.98; pIC50 (DRO81-1; Table 8, biphenyl ureas): 6.59; pIC50 (HCT-116; Table 8, biphenyl ureas): 5.47; pIC50 (BCPAP; Table 8, biphenyl ureas): 7.80; pIC50 (A-549; Table 8, biphenyl ureas): 6.27; pIC50 (MDA1986; Table 8, biphenyl ureas): 6.07; pIC50 (MRC5; MRC5, Table 8, biphenyl ureas): 5.51
4 | COc1cc(NC(=O)Nc2cc3ccc(OC4CCN(C)CC4)c(C)c3oc2=O)cc(OC)c1OC [3,4,5-trimethoxyl, 1-(8-methyl-7-((1-methylpiperidin-4-yl)oxy)-2-oxo-2H-chromen-3-yl)-3-(3,4,5-trimethoxyphenyl)urea] | 5.89 | 5.54 | 5.37 | 5.35 | 3.68 | 4.89 | < 4.60 | 5.77 | 4.83 | 5.88 | 5.04 | < 4.60 | 

Continued, in another order:

Row | pIC50 [2, 6] | pIC50 (MDAMB231; [7]) | pIC50 [3, 8] | pIC50 (PC-3; [7]) | pIC50 (HCT-116; [7]) | pIC50 (A-549; [7]) | Compound | pIC50 (HMLE; [7]) | pIC50 (JMAR; [7]) | pIC50 (DRO81-1; [7]) | pIC50 (BCPAP; [7]) | pIC50 (MDA1986; [7]) | pIC50 (MRC5; [9]) | further results
5 | 6.00 | 5.85 | 5.95 | 5.10 | 5.03 | 5.57 | Cc1c(OC2CCN(C)CC2)ccc2cc(NC(=O)Nc3ccc(N(C)C)cc3)c(=O)oc12 [p-N-dimethylamine, 1-(4-(dimethylamino)phenyl)-3-(8-methyl-7-((1-methylpiperidin-4-yl)oxy)-2-oxo-2H-chromen-3-yl)urea] | 6.02 | 6.11 | < 4.60 | 6.13 | 4.76 | 4.84 | 
6 | 6.40 | 6.16 | 6.39 | 6.80 | 6.57 | 6.51 | Cc1c(OC2CCN(C)CC2)ccc2cc(NC(=O)Nc3ccc(OC(F)(F)F)cc3)c(=O)oc12 [p-OCF3, 1-(8-methyl-7-((1-methylpiperidin-4-yl)oxy)-2-oxo-2H-chromen-3-yl)-3-(4-(trifluoromethoxy)phenyl)urea] | 5.39 | 5.44 | 6.64 | 6.06 | 6.06 | 5.48 | 
7 | 6.25 | 6.16 | 6.24 | 6.39 | 6.28 | 6.31 | CCc1ccc(NC(=O)Nc2cc3ccc(OC4CCN(C)CC4)c(C)c3oc2=O)cc1 [p-CH2CH3, 1-(4-ethylphenyl)-3-(8-methyl-7-((1-methylpiperidin-4-yl)oxy)-2-oxo-2H-chromen-3-yl)urea] | 5.92 | 5.99 | 6.54 | 5.36 | 5.85 | 5.59 | 
8 | 6.30 | 5.72 | 6.36 | 6.39 | 6.47 | 6.40 | CCc1cccc(NC(=O)Nc2cc3ccc(OC4CCN(C)CC4)c(C)c3oc2=O)c1 [m-CH2CH3, 1-(3-ethylphenyl)-3-(8-methyl-7-((1-methylpiperidin-4-yl)oxy)-2-oxo-2H-chromen-3-yl)urea] | < 4.60 | 6.20 | 6.17 | 5.25 | 5.88 | 5.28 | 

Reference: US10030006B2, “Coumarin based Hsp90 inhibitors with urea and ether substituents” (University of Kansas, priority 2013, dated 2018)
